Experimental data from publication PMC4729491, “The Cellular Thioredoxin-1/Thioredoxin Reductase-1 Driven Oxidoreduction Represents a Chemotherapeutic Target for HIV-1 Entry Inhibition” (PLoS ONE, 2016).
Where two headings read alike, the source gives them in different places. Each block holds one molecule with its values, some of them ahead of it.

Legend:
HIV-1(IIIB) [1] = format: cell-based
Method: Two time-of-drug-addition (TOA) experiments were performed and adopted from previously reported methods. Briefly, MT-4 cells were infected with HIV-1(IIIB) at a multiplicity of infection of 0.5. Following a 1 hour adsorption period, cells were washed, distributed in a 96-well tray at 100,000 cells per 200 μl per well and incubated at 37°C.
For the first experiment, test compounds were added to the infected cell cultures at different time points (i.e. 0, 1, 2, 3, 4, 5, 6, 7, 8, 9, 24, and 25 h) after the start of infection.
In a second experiment, the resolution of the assay was increased by evaluating early time points in more detail. Therefore, the test compounds were added to the infected cell cultures at the following time points after the start of infection: 0, 15, 30, 45, 100 and 180 min; and 24 as well as 25 h.
Product added at time points 0, 15, 30 and 45 min was present at the start of the viral infection and washed away after 1 hour. After washing, fresh product was added to maintain viral suppression throughout the remaining of the experiment.
HIV-1 production was determined at 31 h post infection via a p24 ELISA (Perkin Elmer, Brussels, Belgium).

[2] = system: HuT-78/HIV-1 and Sup-T1 cells; test: cells; format: cell-based; conditions: read-out: IC50 inhibition of syncytia formation
Method: Persistently infected HuT-78/HIV-1 cells were thoroughly washed to eliminate free virions. Next, 1 x 10^5 HuT-78/HIV-1 cells were co-cultivated with 1 x 10^5 Sup-T1 cells in 96-well plates (200 μl/well) during 20 h at 37°C, in the presence or absence of a serial dilution of compound. Afterwards, the formation of syncytia was evaluated microscopically. The EC50 was defined as the compound concentration required to suppress syncytia formation by 50%.

HIV-1 protease [3] = target: T1, HIV-1 protease (Human immunodeficiency virus type 1 group M subtype B, UniProt P04585); test: p55 cleavage in virus particles from HuT-78/HIV-1 cells (Western blot); format: cell-based; conditions: 43 h, AZT 3.7 μM, ritonavir 2.8 μM, TE-10 1 and 20 μM
T1 construct: the virus-encoded protease; endogenous in cells; host or cells: persistently infected HuT-78/HIV-1(IIIB) cells and released virus particles
Method: In order to confirm the inhibitory effect of TE-10, an additional assay was performed to study the inhibition of the HIV-1 protease by TE-10. Therefore, 2 x 10^5 persistently infected HuT-78/HIV-1 cells were washed thoroughly and seeded in 48-well plates, in the presence or absence of compound. As reference compounds, the RT inhibitor AZT (3.7 μM) and the protease inhibitor ritonavir (2.8 μM) were used, as negative and positive controls, respectively. TE-10 was used at 1 μM and 20 μM. After 43 h of incubation at 37°C, virus-containing cell culture supernatants were harvested and the cells were removed by centrifugation (10 min at ± 900 x g). Then, virus was precipitated from the cell supernatant by centrifugation at ± 3.5 x 10^4 x g for at least 2 h. The viruses were resuspended in PBS and lysed with Triton-X100 (Sigma-Aldrich, Diegem, Belgium). These viral lysates were then subjected to SDS-PAGE and subsequent Western blotting to detect the presence of p24 and its precursor p55, using an anti-p24 antibody (AB9044; final concentration 2.4 μg/ml).

HIV-1(IIIB) [4] = test: microbe, parasite or virus in culture; format: cell-based; conditions: for Ratio IC50/EC50 HIV-1 (CEM): CEM cells; for EC50: Human immunodeficiency virus 1, IIIB, CCRF-CEM
Method: (§1) To study the antiviral activity in transformed cells, CEM cells were suspended in fresh culture medium and infected with HIV-1(IIIB) or HIV-2(ROD) at 100 x CCID50 (cell culture infective dose 50%) per ml of cell suspension. Infected cell suspension (100 μl; 3 x 10^5 cells/ml) was transferred to a 96-well microplate, mixed with 100 μl of the appropriate dilutions of compounds, and further incubated at 37°C. After 4 days, giant cell formation was recorded microscopically and the number of giant cells was estimated microscopically as percentage of the number of giant cells present in the non-treated virus-infected cell cultures.

HIV-2(ROD) = test: Inhibition of HIV-2(ROD)-induced giant cell formation in CEM cell cultures; format: cell-based; conditions: for Ratio IC50/EC50 HIV-2 (CEM): CEM cells; for EC50: Human immunodeficiency virus 2, CCRF-CEM, read-out: EC50 HIV-2 (ROD)
Method: as §1

CEM cells = test: Cytostatic activity assay, CEM cells; format: cell-based; conditions: Homo sapiens, CCRF-CEM, 72 h; inhibition of cell proliferation by 50%, three-day drug-exposed; mean ± SD
Method: (§2) The cytostatic activity assay using transformed cell lines was also performed in 96-well microtiter plates. 5–7.5 x 10^4 human CD4^+ T-lymphocyte CEM or human cervix carcinoma HeLa cells and a given amount of the test compounds were added to each well. The cells were allowed to proliferate for 72 h (96 h for HeLa) at 37°C in a humidified CO2-controlled atmosphere. At the end of the incubation period, the cells were counted in a Coulter counter (type ZM, Coulter Electronics, Analis, Ghent, Belgium).

HeLa cells = test: Cytostatic activity assay, HeLa cells; format: cell-based; conditions: Homo sapiens, 72 h, read-out: IC50 HeLa
Method: as §2

HIV-1(IIIB) [5] = test: Antiviral activity in PHA-stimulated PBMCs (p24 ELISA), HIV-1(IIIB); format: cell-based; conditions: Human immunodeficiency virus 1, IIIB, PBMC, read-out: EC50 HIV-1 (IIIB)
Method: (§3) To test the antiviral activity in fresh, PHA-stimulated PBMCs, an experiment was performed as previously described. Briefly, the cells were preincubated with HIV-1(IIIB), HIV-1(BaL) or HIV-1(HE) for 1 h at 37°C, using a viral load of 1000 x CCID50 per ml. Then, cell suspensions containing virus and 2 x 10^5 PBMCs were seeded in a 96-well microtiter plate and a serial dilution of compound was added, in a total volume of 200 μl. After 4 days, the cells were passaged and fresh culture medium, containing IL-2 and compound, was added. Three days later, cellular supernatants were harvested and viral replication in the presence of the compounds was quantified using a p24 enzyme-linked immunosorbent assay (ELISA) (Perkin Elmer, Brussels, Belgium). The half maximal effective concentration (EC50) was defined as the compound concentration that is required to block viral replication by 50%.

HIV-1(BaL) = test: Antiviral activity in PHA-stimulated PBMCs (p24 ELISA), HIV-1(BaL); format: cell-based; conditions: Human immunodeficiency virus 1, BAL, PBMC, read-out: EC50 HIV-1 (BAL)
Method: as §3

HIV-1(HE) = test: Antiviral activity in PHA-stimulated PBMCs (p24 ELISA), HIV-1(HE); format: cell-based; conditions: Human immunodeficiency virus 1, PBMC, read-out: EC50 HIV-1 (HE)
Method: as §3

PHA-stimulated PBMCs = test: Toxicity in PHA-stimulated PBMCs (trypan blue cell counting); format: cell-based, human; conditions: Homo sapiens, PBMC, 168 h, read-out: IC50 PBMC
Method: A similar experiment was performed to study the toxicity of the compounds in fresh, PHA-stimulated, PBMCs. Mock-infected PBMCs (2 x 10^5 cells) were exposed to a serial dilution of compound, in a total volume of 200 μl. Cells were passaged after 4 days. Cell survival and proliferation was assessed at day 7 using trypan blue-based cell counting with the Countess Automated Cell Counter (Invitrogen, Ghent, Belgium). The IC50 was defined as the concentration of the compound that inhibited cell proliferation by 50%.

HIV-1 [6] = test: Infectivity (TZM-bl) of virus particles produced by ACH-2 cells in presence of compound; format: cell-based; conditions: for carry-over control: residual compound as cause of decreased infectivity: compound added at 1/100 of concentration in viral growth culture
Method: To measure the infectivity of particles produced in the presence of the compounds, washed persistently HIV-1-infected ACH-2 cells (1 x 10^6 cells/ml) were cultured with 100 nM PMA in the presence of the indicated concentration of compounds. After 3 days, the p24 content of the clarified supernatant (see virus expression) was measured. The cell supernatant was then used for an infectivity test (see infectivity assay) without the further addition of any compound to the cultures. The final dilution of the ACH-2 supernatant in the infectivity test was 1:100. A control experiment was performed, in which virus particles produced without the addition of compound, were used for the infectivity test. Additionally, the same amount of compound that could have been carried over with the virus containing supernatant in the original experiment was added to the infectivity test (final concentration: 1/100 of the indicated amount in the viral growth culture).

HIV-1 protease [7] = target: T1, HIV-1 protease; test: HIV-1 protease inhibition (SensoLyte 520 kit); format: biochemical; conditions: 25 μM
Method: The ability of the compounds to inhibit the activity of recombinant HIV-1 protease was determined by a SensoLyte 520 HIV-1 protease assay kit (AnaSpec Inc., Fremont, CA) according to the manufacturer’s instructions. Compounds (10 μl of a 250 μM, solution, giving a final concentration of 25 μM in the reaction mixture) and 40 μl HIV-1 protease (100 ng/well; AnaSpec Inc.) were added to a dark-bottom 96-well plate. Pepstatin A was included as an inhibitor control. The plate as well as the HIV-1 protease substrate solution (provided) were incubated for 15 minutes at 37°C and 50 μl protease substrate was added to all wells. The fluorescence was measured at Ex/Em = 490 nm/520 nm with a Varioskan Flash (Thermo Electron Corporation, Schwerte, Germany).

[8] = previously known structural properties ref 20-22; cited from earlier work
HIV-1 [9] = test: Infectivity assay in TZM-bl cells (luciferase); conditions: TZM-bl, 40 h
Method: TZM-bl cells (1 x 10^5) were infected with diluted virus suspension (see virus expression) in a total volume of 0.2 ml DMEM medium in the presence of the compounds or an inhibitor control (nevirapine). After 40 h at 37°C, the luminescence was assayed and quantified in a Luminoskan Ascent (Thermo Labsystems, Schwerte, Germany) for luciferase activity using the OneGlo luciferase assay system (Promega, Nacka, Sweden).

[10] = Human immunodeficiency virus 1, SUP-T1, 24 h

IC50 ([2]; Human immunodeficiency virus 1, cocultures of HuT-78/HIV-1 and Sup-T1 cells, ~24 hours): 9.3 ± 4.3 µM
Compound: c1cc(CN2CCCNCCNCCCNCC2)ccc1CN1CCCNCCNCCCNCC1 [AMD3100]
inhibition in time-of-addition assay (HIV-1(IIIB) [1]; 625 nM): fully inhibitory
time post-infection at which activity is lost (HIV-1(IIIB) [1]; MT-4 cells, second TOA experiment, DS-8000 12.5 μM, AMD3100 625 nM): 30 to 45 min

Compound: Cc1cn([C@H]2C[C@H](N=[N+]=[N-])[C@@H](CO)O2)c(=O)[nH]c1=O [AZT, 3’-azido-2’,3’-dideoxythymidine]
time after virus infection that addition could be delayed without losing inhibitory activity (HIV-1(IIIB) [1]; MT-4 cells, p24 ELISA at 31 h, AZT 1.9 μM, ritonavir 277 nM): at least 3 h
p55 cleavage in viral particles (Western blot) (HIV-1 protease [3]): allow efficient p55 cleavage

Compound: COC(=O)CCN(CCC(=O)OC)c1ccc([Te]c2ccc(N(CCC(=O)OC)CCC(=O)OC)cc2)cc1 [TE-10, bis[4-(N,N-di(2-carbomethoxyethyl)amino)phenyl]telluride]
Ratio IC50/EC50 HIV-1 (CEM) (HIV-1(IIIB) [4]): 16
EC50 (HIV-1(IIIB) [4]; read-out: EC50 (range given)): 15 to 16 µM
EC50 (HIV-1(IIIB) [4]; read-out: EC50 HIV-1 (IIIB)): 16 ± 7.9 µM
Ratio IC50/EC50 HIV-2 (CEM) (HIV-2(ROD)): 17
EC50 (HIV-2(ROD)): 15 ± 2.6 µM
IC50 (CEM cells): ≥ 250 µM
IC50 (HeLa cells): 128 ± 29 µM
EC50 (HIV-1(IIIB) [5]): 12 ± 4 µM
EC50 (HIV-1(BaL)): 12 ± 10 µM
EC50 (HIV-1(HE)): 6.6 ± 2.1 µM
IC50 (PHA-stimulated PBMCs): 19 ± 2 µM
IC50 [2, 10]: > 250 µM
carry-over control: residual compound as cause of decreased infectivity (HIV-1 [6]): could not be explained by the presence of residual compound
decrease of protease activity (HIV-1 protease [7]): 50%
p55 cleavage in viral particles (Western blot) (HIV-1 protease [3]): allow efficient p55 cleavage
Hydrophobicity [8]: Hydrophobic
fold higher concentration for similar inhibition of luminescence signal than the other organotellurium compounds (HIV-1 [9]): approximately 10 fold

Compound: CN(C)c1ccc([Te]CCCOc2ccccc2)cc1 [TE-14, N,N-dimethyl-4-aminophenyl 3-phenoxypropyl telluride]
Ratio IC50/EC50 HIV-1 (CEM) (HIV-1(IIIB) [4]): 26
EC50 (HIV-1(IIIB) [4]; read-out: EC50 HIV-1 (IIIB)): 0.86 ± 0.21 µM
Ratio IC50/EC50 HIV-2 (CEM) (HIV-2(ROD)): 16
EC50 (HIV-2(ROD)): 1.4 ± 0.56 µM
IC50 (CEM cells): 22 ± 2 µM
IC50 (HeLa cells): 25 ± 4 µM
EC50 (HIV-1(IIIB) [5]): 4.9 ± 2.1 µM
EC50 (HIV-1(BaL)): 9.6 ± 10 µM
EC50 (HIV-1(HE)): 5.4 ± 3 µM
IC50 (PHA-stimulated PBMCs): 9.9 ± 2.5 µM
IC50 [2, 10]: > 250 µM
infectivity of virus particles produced in presence of compound (normalized for equal p24) (HIV-1 [6]; ACH-2 cultures exposed to compound 3 days, supernatant 1:100 titrated on TZM-bl): substantially less infectious virus particles
carry-over control: residual compound as cause of decreased infectivity (HIV-1 [6]): could not be explained by the presence of residual compound
Hydrophobicity [8]: Hydrophobic
